Nc1ncnc2c1ncn2CCOCP(=O)(O)O
solubility (mole fraction)
Details | 278.15 K | 283.15 K | 288.15 K | 293.15 K | 298.15 K | 303.15 K | 308.15 K | 313.15 K | 318.15 K | 323.15 K
in DMF | 0.000121 | 0.000203 | 0.000318 | 0.000491 | 0.000762 | 0.00115 | 0.00172 | 0.00254 | 0.00368 | 0.0053
in acetone | 0.000103 | 0.000114 | 0.000145 | 0.00018 | 0.000231 | 0.000286 | 0.000359 | 0.000435 | 0.000531 | 0.00065
in ethanol | 7.5e-05 | 9.4e-05 | 0.00012 | 0.000154 | 0.000191 | 0.000237 | 0.000291 | 0.000342 | 0.000438 | 0.000541
in isobutanol | 0.000183 | 0.000211 | 0.000252 | 0.000296 | 0.000365 | 0.000433 | 0.000505 | 0.000597 | 0.00069 | 0.00081
in methanol | 0.000352 | 0.000395 | 0.000455 | 0.000523 | 0.0006 | 0.000704 | 0.000805 | 0.000915 | 0.00105 | 0.00122
in n-heptane | 0.000127 | 0.000139 | 0.000175 | 0.000217 | 0.000269 | 0.000325 | 0.000394 | 0.000473 | 0.00057 | 0.000679
in n-propanol | 0.000217 | 0.000235 | 0.000279 | 0.000343 | 0.000409 | 0.000485 | 0.00058 | 0.000681 | 0.0008 | 0.00093
in toluene | 5.7e-05 | 6.5e-05 | 8.7e-05 | 0.000115 | 0.000144 | 0.000185 | 0.000239 | 0.000295 | 0.000373 | 0.000464
